Results as given in patent publication US8883782B2, “Spiro-tetracyclic ring compounds as beta-secretase modulators and methods of use” (Amgen Inc., priority 2010, dated 2014).
Like-named read-outs stand apart in the source and are kept apart here.

Legend:
[1] = biological target: Beta Secretase enzyme (BACE) (Homo sapiens, UniProt P56817); assay: In vitro enzymatic BACE FRET (fluorescence resonance energy transfer) assay; type: biochemical; conditions: average IC50, enzyme assay; read-out: BACE 1 FRET assay
Procedure, shortened: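 Cleavage of a 50 nM fluorophore/quencher peptide FRET substrate by BACE for 1 h in 0.05 M acetate pH 4.2, 10% DMSO, 100 uM genapol. Reaction stopped with Tris to neutral pH before fluorescence reading.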

[2] = tested on: Aβ40 in conditioned medium of cells stably expressing Amyloid Precursor Protein (APP); assay: In vitro BACE cell-based assay (Aβ40 in conditioned medium, sandwich ELISA); conditions: read-out: HEK cell assay
Procedure, shortened: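 Secreted Aβ40 is captured with pAb40 and detected with biotinylated 6E10, read by europium time-resolved fluorescence. IC50 comes from percent inhibition versus concentration.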

[3] = Homo sapiens, HEK293, average IC50
[4] = Homo sapiens, HEK293, average IC50, HEK cells

Beta Secretase enzyme (BACE), sequence (P56817 46-501, species assumed): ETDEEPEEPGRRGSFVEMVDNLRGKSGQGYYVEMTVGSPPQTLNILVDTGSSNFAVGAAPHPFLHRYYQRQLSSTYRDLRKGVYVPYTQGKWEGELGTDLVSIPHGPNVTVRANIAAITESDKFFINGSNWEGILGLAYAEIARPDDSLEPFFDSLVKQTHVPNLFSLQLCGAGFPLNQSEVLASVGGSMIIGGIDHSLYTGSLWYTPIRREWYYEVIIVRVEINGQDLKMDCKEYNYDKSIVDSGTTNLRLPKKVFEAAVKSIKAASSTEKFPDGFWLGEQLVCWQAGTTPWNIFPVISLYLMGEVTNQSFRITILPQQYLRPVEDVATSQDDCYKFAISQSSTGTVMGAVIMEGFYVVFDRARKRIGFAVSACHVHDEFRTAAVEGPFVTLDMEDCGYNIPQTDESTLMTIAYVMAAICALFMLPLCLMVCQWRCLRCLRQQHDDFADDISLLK

SMILES | IC50 [1] [nM] | IC50 [2, 3] [nM] | IC50 [2, 4] [nM] | IC50 ([2]; average IC50, HEK cells) [nM]
CC#Cc1cncc(-c2ccc3c(c2)[C@@]2(COC(N)=N2)c2cc(C4=CCCOC4)nc(F)c2O3)c1 [Example 758, (5S)-3-(5,6-dihydro-2H-pyran-3-yl)-1-fluoro-7-(5-(1-propyn-1-yl)-3-pyridinyl)spiro[chromeno[2,3-c]pyridine-5,4′-[1,3]oxazol]-2′-amine] | 0.4 | 2 |  | 
NC1=N[C@@]2(CS1)c1cc(-c3cccnc3F)ccc1Oc1cnc(C3=CCOCC3)cc12 [Example 614, (5S)-3-(3,6-dihydro-2H-pyran-4-yl)-7-(2-fluoro-3-pyridinyl)spiro[chromeno[2,3-c]pyridine-5,4′-[1,3]thiazol]-2′-amine] | 0.3 |  |  | 5
C[C@@H]1CN(c2cc(F)c3c(c2)[C@]2(COC(N)=N2)c2cc(-c4cncc(F)c4)ccc2O3)C[C@H](C)O1 [Example 274, (4S)-2′-((2R,6S)-2,6-dimethyl-4-morpholinyl)-4′-fluoro-7′-(5-fluoro-3-pyridinyl)spiro[1,3-oxazole-4,9′-xanthen]-2-amine] | 2.9 | 10.4 |  | 
CC(C)(C)COc1ccc2c(c1)[C@@]1(COC(N)=N1)c1cc(C3=CCOC(C)(C)C3)cnc1O2 [Example 504, (5S)-3-(2,2-dimethyl-3,6-dihydro-2H-pyran-4-yl)-7-(2,2-dimethylpropoxy)spiro[chromeno[2,3-b]pyridine-5,4′-[1,3]oxazol]-2′-amine] | 7.6 |  | 29.7 | 
NC1=N[C@@]2(CO1)c1cc(-c3cncc(F)c3)ccc1Oc1c(F)cc(N3CC4CCC(C3)O4)cc12 [Example 283, (4S)-4′-fluoro-7′-(5-fluoro-3-pyridinyl)-2′-(8-oxa-3-azabicyclo[3.2.1]oct-3-yl)spiro[1,3-oxazole-4,9′-xanthen]-2-amine] | 0.4 | 3.2 |  | 
CN1CCN(c2cc3c(cn2)Oc2ccc(-c4cccnc4F)cc2[C@@]32COC(N)=N2)CC1(C)C [Example 529, (5S)-7-(2-fluoro-3-pyridinyl)-3-(3,3,4-trimethyl-1-piperazinyl)spiro[chromeno[2,3-c]pyridine-5,4′-[1,3]oxazol]-2′-amine] | 8.9 |  | 4.4 | 
CC(C)(O)C#Cc1cncc(-c2ccc3c(c2)[C@@]2(COC(N)=N2)c2cc(-c4ccnc(F)c4)ncc2O3)c1 [Example 817, 4-(5-((5S)-2′-amino-3-(2-fluoro-4-pyridinyl)spiro[chromeno[2,3-c]pyridine-5,4′-[1,3]oxazol]-7-yl)-3-pyridinyl)-2-methyl-3-butyn-2-ol] | 13.5 | 1480 |  | 
NC1=N[C@@]2(CO1)c1cc(-c3cncc(C#CCO)c3)ccc1Oc1cnc(-c3ccnc(F)c3)cc12 [Example 825, 3-(5-((5S)-2′-amino-3-(2-fluoro-4-pyridinyl)spiro[chromeno[2,3-c]pyridine-5,4′-[1,3]oxazol]-7-yl)-3-pyridinyl)-2-propyn-1-ol] | 0.3 | 6 |  | 
CC#Cc1cncc(-c2ccc3c(c2)[C@@]2(COC(N)=N2)c2cc(C4=CCOCC4)nc(OC)c2O3)c1 [Example 835, (5S)-3-(3,6-dihydro-2H-pyran-4-yl)-1-methoxy-7-(5-(1-propyn-1-yl)-3-pyridinyl)spiro[chromeno[2,3-c]pyridine-5,4′-[1,3]oxazol]-2′-amine] | 0.6 | 7 |  | 
NC1=N[C@@]2(CO1)c1cc(-c3cccnc3F)ccc1Oc1cnc(/C=C/C3CC3)cc12 [Example 401, (5S)-3-((E)-2-cyclopropylethenyl)-7-(2-fluoro-3-pyridinyl)spiro[chromeno[2,3-c]pyridine-5,4′-[1,3]oxazol]-2′-amine] | 4.4 |  | 44.9 | 
NC1=N[C@@]2(CO1)c1cc(-c3cccnc3F)ccc1Oc1nc(F)c(I)cc12 [Example 898, (5S)-2-fluoro-7-(2-fluoro-3-pyridinyl)-3-iodospiro[chromeno[2,3-b]pyridine-5,4′-[1,3]oxazol]-2′-amine] | 10600 |  | ≥ 10000 | 
CC#Cc1cncc(-c2ccc3c(c2)[C@@]2(COC(N)=N2)c2cc(-c4ccnc(C)c4)nc(F)c2O3)c1 [Example 740, (5S)-1-fluoro-3-(2-methyl-4-pyridinyl)-7-(5-(1-propyn-1-yl)-3-pyridinyl)spiro[chromeno[2,3-c]pyridine-5,4′-[1,3]oxazol]-2′-amine] | 0.8 | 8 |  | 
NC1=N[C@@]2(CS1)c1cc(-c3cnccc3F)ccc1Oc1ncc(C3=CCOCC3)cc12 [Example 768, (5S)-3-(3,6-dihydro-2H-pyran-4-yl)-7-(4-fluoro-3-pyridinyl)spiro[chromeno[2,3-b]pyridine-5,4′-[1,3]thiazol]-2′-amine] | 1.2 | 16 |  | 
CC1(COc2cc3c(cc2F)Oc2ccc(-c4cncc(C#N)c4)cc2[C@@]32COC(N)=N2)COC1 [Example 330, 5-((4S)-2-amino-6′-fluoro-7′-((3-methyl-3-oxetanyl)methoxy)spiro[1,3-oxazole-4,9′-xanthen]-2′-yl)-3-pyridinecarbonitrile] | 8.8 | 33.6 |  | 
CC1(C)CC(c2cc3c(cn2)Oc2ccc(-c4cncnc4)cc2[C@@]32COC(N)=N2)=CCO1 [Example 679, (5S)-3-(2,2-dimethyl-3,6-dihydro-2H-pyran-4-yl)-7-(5-pyrimidinyl)spiro[chromeno[2,3-c]pyridine-5,4′-[1,3]oxazol]-2′-amine] | 1.6 |  | 14 | 
COC(C)(C)CNc1cc2c(cn1)Oc1ccc(-c3cccnc3)cc1[C@@]21COC(N)=N1 [Example 409, (5S)-N~3~-(2-methoxy-2-methylpropyl)-7-(3-pyridinyl)spiro[chromeno[2,3-c]pyridine-5,4′-[1,3]oxazole]-2′,3-diamine] | 6.6 |  | 17.8 | 
NC1=N[C@@]2(CO1)c1cc(-c3cccnc3)ccc1Oc1c(F)cc(N3CCCC3=O)cc12 [Example 792, 1-((4S)-2-amino-4′-fluoro-7′-(3-pyridinyl)spiro[1,3-oxazole-4,9′-xanthen]-2′-yl)-2-pyrrolidinone] | 5.1 | 30 |  | 

Second part, led by results:

IC50 [1] [nM] | IC50 [2, 3] [nM] | IC50 [2, 4] [nM] | SMILES | IC50 ([2]; average IC50, HEK cells) [nM]
4.1 | 21.5 |  | CC1(COc2cc3c(cc2F)Oc2ccc(-c4cncc(F)c4)cc2[C@@]32COC(N)=N2)COC1 [Example 327, (4S)-3′-fluoro-7′-(5-fluoro-3-pyridinyl)-2′-((3-methyl-3-oxetanyl)methoxy)spiro[1,3-oxazole-4,9′-xanthen]-2-amine] | 
5.1 |  |  | CC1(C)C[C@H](c2cnc3c(c2)[C@]2(COC(N)=N2)c2cc(-c4cccc(C#N)c4)ccc2O3)CCO1 [Example 471, 3-((5S)-2′-amino-3-((4R)-2,2-dimethyltetrahydro-2H-pyran-4-yl)spiro[chromeno[2,3-b]pyridine-5,4′-[1,3]oxazol]-7-yl)benzonitrile] | 14
89.6 | 629 |  | NC1=N[C@@]2(CO1)c1cc(OCc3ccccn3)ccc1Oc1ncc(C3=CCOCC3)cc12 [Example 972, (5S)-3-(3,6-dihydro-2H-pyran-4-yl)-7-(2-pyridinylmethoxy)spiro[chromeno[2,3-b]pyridine-5,4′-[1,3]oxazol]-2′-amine] | 
1.3 | 14 |  | CC1(C)C=C(c2cc3c(c(F)n2)Oc2ccc(-c4cccnc4F)cc2[C@]32CSC(N)=N2)CCO1 [Example 1035, (5R)-3-(6,6-dimethyl-3,6-dihydro-2H-pyran-4-yl)-1-fluoro-7-(2-fluoro-3-pyridinyl)spiro[chromeno[2,3-c]pyridine-5,4′-[1,3]thiazol]-2′-amine] | 
33.6 | 154 |  | NC1=N[C@@]2(CO1)c1cc(OCc3cccnc3)ccc1Oc1ncc(C3=CCOCC3)cc12 [Example 971, (5S)-3-(3,6-dihydro-2H-pyran-4-yl)-7-(3-pyridinylmethoxy)spiro[chromeno[2,3-b]pyridine-5,4′-[1,3]oxazol]-2′-amine] | 
1 | 141 |  | NC1=N[C@@]2(CS1)c1cc(-c3cccnc3F)ccc1Oc1c2cc(-c2cccnc2F)nc1F [Example 1025, (5S)-1-fluoro-3,7-bis(2-fluoro-3-pyridinyl)spiro[chromeno[2,3-c]pyridine-5,4′-[1,3]thiazol]-2′-amine] | 
10.3 | 79 |  | NC1=N[C@]2(CO1)c1cc(N3CC[C@@H](F)C3)cc(F)c1Oc1ccc(-c3cccnc3F)c(F)c12 [Example 1053, (4R)-1′,5′-difluoro-2′-(2-fluoro-3-pyridinyl)-7′-((3R)-3-fluoro-1-pyrrolidinyl)spiro[1,3-oxazole-4,9′-xanthen]-2-amine] | 
0.6 |  | 5 | CC1(COc2cc(F)c3c(c2)[C@]2(COC(N)=N2)c2cc(-c4cnccc4F)ccc2O3)COC1 [Example 604, (4S)-4′-fluoro-7′-(4-fluoro-3-pyridinyl)-2′-((3-methyl-3-oxetanyl)methoxy)spiro[1,3-oxazole-4,9′-xanthen]-2-amine] | 
2.4 |  | 17.7 | CC1(C)C[C@H](c2cc(F)c3c(c2)[C@]2(COC(N)=N2)c2cc(-c4cnccn4)ccc2O3)CCO1 [Example 450, (4S)-2′-((4R)-2,2-dimethyltetrahydro-2H-pyran-4-yl)-4′-fluoro-7′-(2-pyrazinyl)spiro[1,3-oxazole-4,9′-xanthen]-2-amine] | 
3.8 |  | 19.1 | CC1(C#Cc2ccc3c(c2)[C@]2(COC(N)=N2)c2cc(-c4cncnc4)c(F)cc2O3)COC1 [Example 498, (4R)-3′-fluoro-7′-((3-methyl-3-oxetanyl)ethynyl)-2′-(5-pyrimidinyl)spiro[1,3-oxazole-4,9′-xanthen]-2-amine] | 
5.6 | 77 |  | NC1=NC2(CO1)c1cc(-c3cccnc3)ccc1Oc1c2cc(C2CCOCC2)nc1F (centres unmarked) [Example 752, 1-fluoro-7-(3-pyridinyl)-3-(tetrahydro-2H-pyran-4-yl)spiro[chromeno[2,3-c]pyridine-5,4′-[1,3]oxazol]-2′-amine] | 
